Test results as given in PubChem BioAssay (NCI).
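Following 48 hours of exposure in 96-well plates, responses at five concentrations were used to interpolate endpoints linearly. TGI marks complete inhibition of growth.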

Assays:
Test in all cases: NCI tumour cell line growth inhibition, 48 h
BT-549 breast = tested on: BT-549 breast
COLO 205 colon = tested on: COLO 205 colon
DU-145 prostate = tested on: DU-145 prostate
HCT-116 colon = tested on: HCT-116 colon
K-562 leukemia = tested on: K-562 leukemia
MALME-3M melanoma = tested on: MALME-3M melanoma
MDA-MB-231 breast = tested on: MDA-MB-231 breast
MOLT-4 leukemia = tested on: MOLT-4 leukemia
NCI-H460 lung = tested on: NCI-H460 lung
NCI/ADR-RES ovarian = tested on: NCI/ADR-RES ovarian
OVCAR-3 ovarian = tested on: OVCAR-3 ovarian
OVCAR-5 ovarian = tested on: OVCAR-5 ovarian
SF-295 CNS = tested on: SF-295 CNS
SK-MEL-28 melanoma = tested on: SK-MEL-28 melanoma
SK-MEL-5 melanoma = tested on: SK-MEL-5 melanoma
SNB-19 CNS = tested on: SNB-19 CNS
TK-10 renal = tested on: TK-10 renal
UACC-62 melanoma = tested on: UACC-62 melanoma
UO-31 renal = tested on: UO-31 renal
HT29 colon = tested on: HT29 colon

CCSc1nc(N)c2c(-c3ccccc3)c3c(nc2n1)CCC3
TGI (BT-549 breast): > 100 µM
TGI (COLO 205 colon): > 100 µM
TGI (DU-145 prostate): > 100 µM
TGI (HCT-116 colon): > 100 µM
TGI (K-562 leukemia): > 100 µM
TGI (MALME-3M melanoma): > 100 µM
TGI (MDA-MB-231 breast): > 100 µM
TGI (MOLT-4 leukemia): > 100 µM
TGI (NCI-H460 lung): > 100 µM
TGI (NCI/ADR-RES ovarian): > 100 µM
TGI (OVCAR-3 ovarian): > 100 µM
TGI (OVCAR-5 ovarian): > 100 µM
TGI (SF-295 CNS): > 100 µM
TGI (SK-MEL-28 melanoma): > 100 µM
TGI (SK-MEL-5 melanoma): > 100 µM
TGI (SNB-19 CNS): > 100 µM
TGI (TK-10 renal): > 100 µM
TGI (UACC-62 melanoma): > 100 µM
TGI (UO-31 renal): 9.02 µM

CC(=O)O[C@H]1[C@@H](OC(C)=O)C(C)(C)/C=C/[C@H](C)C(=O)[C@@]2(OC(C)=O)C[C@@](C)(OC(C)=O)[C@H](OC(C)=O)[C@@H]2[C@H]2OC(=O)CC[C@@]2(OC(=O)c2ccccc2)[C@@H]1OCC(C)C
TGI (BT-549 breast): > 100 µM
TGI (COLO 205 colon): > 100 µM
TGI (DU-145 prostate): > 100 µM
TGI (HCT-116 colon): 65.2 µM
TGI (HT29 colon): > 100 µM
TGI (K-562 leukemia): > 100 µM
TGI (MALME-3M melanoma): > 100 µM
TGI (MDA-MB-231 breast): > 100 µM
TGI (MOLT-4 leukemia): > 100 µM
TGI (NCI-H460 lung): > 100 µM
TGI (NCI/ADR-RES ovarian): > 100 µM
TGI (OVCAR-3 ovarian): > 100 µM
TGI (OVCAR-5 ovarian): > 100 µM
TGI (SF-295 CNS): > 100 µM
TGI (SK-MEL-5 melanoma): > 100 µM
TGI (SNB-19 CNS): > 100 µM
TGI (TK-10 renal): > 100 µM
TGI (UACC-62 melanoma): > 100 µM
TGI (UO-31 renal): > 100 µM

NC1(C(=O)O)CCCC1
TGI (COLO 205 colon): > 625 µM
TGI (HCT-116 colon): > 625 µM
TGI (HT29 colon): > 625 µM
TGI (K-562 leukemia): > 625 µM
TGI (MALME-3M melanoma): > 625 µM
TGI (MOLT-4 leukemia): > 625 µM
TGI (NCI-H460 lung): > 625 µM
TGI (NCI/ADR-RES ovarian): > 625 µM
TGI (OVCAR-3 ovarian): > 62.5 µM
TGI (OVCAR-5 ovarian): > 625 µM
TGI (SF-295 CNS): > 625 µM
TGI (SK-MEL-28 melanoma): > 625 µM
TGI (SK-MEL-5 melanoma): > 625 µM
TGI (SNB-19 CNS): > 99.1 µM
TGI (UACC-62 melanoma): > 625 µM
TGI (UO-31 renal): > 625 µM

CSCCC(NC(=O)OCc1ccccc1)NC(=O)OCc1ccccc1
TGI (COLO 205 colon): > 100 µM
TGI (DU-145 prostate): > 100 µM
TGI (HCT-116 colon): > 100 µM
TGI (HT29 colon): > 100 µM
TGI (K-562 leukemia): > 100 µM
TGI (MDA-MB-231 breast): > 100 µM
TGI (MOLT-4 leukemia): > 100 µM
TGI (NCI-H460 lung): > 100 µM
TGI (NCI/ADR-RES ovarian): > 100 µM
TGI (OVCAR-3 ovarian): > 100 µM
TGI (OVCAR-5 ovarian): > 100 µM
TGI (SF-295 CNS): > 100 µM
TGI (SK-MEL-28 melanoma): > 100 µM
TGI (SK-MEL-5 melanoma): > 100 µM
TGI (SNB-19 CNS): > 100 µM
TGI (TK-10 renal): > 100 µM
TGI (UO-31 renal): > 100 µM

COc1ccc(Oc2nc(C#CC(C)(C)O)nc(Oc3ccc(OC)cc3)n2)cc1
TGI (BT-549 breast): 31.1 µM
TGI (COLO 205 colon): 16.9 µM
TGI (DU-145 prostate): 7.16 µM
TGI (HCT-116 colon): > 100 µM
TGI (HT29 colon): 10.8 µM
TGI (K-562 leukemia): > 100 µM
TGI (MALME-3M melanoma): 34.6 µM
TGI (MDA-MB-231 breast): 9.93 µM
TGI (NCI-H460 lung): 37.3 µM
TGI (NCI/ADR-RES ovarian): 46.8 µM
TGI (OVCAR-3 ovarian): 4.58 µM
TGI (OVCAR-5 ovarian): 16.6 µM
TGI (SF-295 CNS): 31.2 µM
TGI (SK-MEL-28 melanoma): 18.9 µM
TGI (SK-MEL-5 melanoma): 27.8 µM
TGI (SNB-19 CNS): 41 µM
TGI (TK-10 renal): 25.5 µM
TGI (UACC-62 melanoma): 25 µM
TGI (UO-31 renal): 2.88 µM
